Laboratory results reported in patent US20010014680A1 (priority 1998, published 2001).
Counter-ions that a name gives are not always drawn.

Columns and labels:
[1] = biological target: T1, human 5HT1A receptor (Homo sapiens, UniProt P08908); assay: 5-HT1A Receptor Binding Assay ([3H] 8-OH-DPAT displacement); details: displacement of [3H] 8-OH-DPAT (1.5 nM) in CHO cells stably transfected with human 5HT1A receptor
T1 construct: expressed in transfected cells; host or cells: CHO cells, stably transfected
T1 sequence (P08908 1-422): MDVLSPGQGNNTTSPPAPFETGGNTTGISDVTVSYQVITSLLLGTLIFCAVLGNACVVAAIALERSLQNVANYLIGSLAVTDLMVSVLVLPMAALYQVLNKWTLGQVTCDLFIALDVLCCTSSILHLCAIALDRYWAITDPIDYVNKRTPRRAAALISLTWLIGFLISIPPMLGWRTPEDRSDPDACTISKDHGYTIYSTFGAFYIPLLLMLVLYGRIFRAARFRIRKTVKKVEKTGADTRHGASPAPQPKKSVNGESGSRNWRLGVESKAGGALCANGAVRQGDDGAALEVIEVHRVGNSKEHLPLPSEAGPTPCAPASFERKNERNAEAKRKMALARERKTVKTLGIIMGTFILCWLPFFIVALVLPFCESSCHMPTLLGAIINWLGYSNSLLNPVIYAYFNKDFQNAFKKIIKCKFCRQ
Protocol: 5-HT1A Receptor Binding Assay
High affinity for the serotonin 5-HT1A receptor was established by testing the claimed compound's ability to displace [^3H] 8-OH-DPAT binding in CHO cells stably transfected with the human 5HT1A receptor. Stably transfected CHO cells are grown in DMEM containing 10% heat inactivated FBS and non-essential amino acids. Cells are scraped off the plate, transferred to centrifuge tubes, and washed twice by centrifugation (2000 rpm for 10 min., 4° C.) in buffer (50 mM Tris pH 7.5). The resulting pellets are aliquoted and placed at −80° C. On the day of assay, the cells are thawed on ice and resuspended in buffer. The binding assay is performed in a 96 well microtiter plate in a total volume of 250 μL. Non-specific binding is determined in the presence of […], final ligand concentration is 1.5 nM. Following a 30 minute incubation at room temperature, the reaction is terminated by the addition of ice cold buffer and rapid filtration through a GF/B filter presoaked for 30 minutes in 0.5% PEI. Compounds are initially tested in a single point assay to determine percent inhibition at […], and Ki values are determined for the active compounds.

[2] = biological target: T1, human 5HT1A receptor; assay: 5-HT1A Receptor Intrinsic Activity Assay (cAMP); assay type: cell-based; details: reversal of forskolin (1 μM) stimulated cAMP in CHO cells stably transfected with human 5-HT1A receptor; RIA
Protocol: 5-HT1A Receptor Intrinsic Activity Assay
The intrinsic activity of compounds of the present invention was established by testing the claimed compounds ability to reverse the stimulation of cyclic adenosinemonophosphate (cAMP) in CHO cells stably transfected with the human 5-HT1A receptor.
Stably transfected CHO cells were grown in DMEM containing 10% heat inactivated FBS and non-essential amino acids. The cells are plated at a density of […] per well in a 24 well plate and incubated for 2 days in a CO2 incubator. On the second day, the media is replaced with 0.5 mL treatment buffer (DMEM + 25 mM HEPES, 5 mM theophylline, 10 μM pargyline) and incubated for 10 minutes at 37° C. Wells are treated with forskolin (1 μM final concentration) followed immediately by the test compound (0.1 and 1 μM for initial screen) and incubated for an additional 10 minutes at 37° C. The reaction is terminated by removal of the media and addition of 0.5 mL ice cold assay buffer (supplied in the RIA kit). Plates are stored at −20° C. prior to assessment of cAMP formation by RIA. EC50 values are determined for the active test compounds. Compounds shown to have no agonist activities (Emax=0%) are further analyzed for their ability to reverse agonist induced activity. In separate experiments, 6 concentrations of antagonist are preincubated for 20 minutes prior to the addition of agonist and forskolin. Cells are harvested as described above. The cAMP kit is supplied by Amersham and the RIA is performed as per kit instructions, and calculations of IC50 performed by GraphPad Prism.

Row | melting point [°C] | SMILES | Ki [1] [nM] | Emax [2] [%]
1 |  | COc1ccccc1N1CCN(CC2CCCNC2)CC1 (centres unmarked) [Example 6, 1-(2-Methoxy-phenyl)-4-piperidin-3-ylmethyl-piperazine] | 2 | 0
2 |  | COc1ccccc1N1CCN(CC2CCNCC2)CC1 [Example 1, 1-(2-Methoxy-phenyl)-4-piperidin-4-ylmethyl-piperazine] |  | 0
3 |  | COc1ccccc1N1CCN(CC2CCN(CC3CCCCC3)CC2)CC1 [Example 3] | 8.4 | 89
4 |  | COc1ccccc1N1CCN(CC2CCCN(Cc3ccccc3)C2)CC1 (centres unmarked) [Example 9, 1-(1-Benzyl-piperidin-3-ylmethyl)-4-(2-methoxy-phenyl)-piperazine] | 14 | 79
5 | > 240 | O=C(C1CCNCC1)N1CCN(c2cccc3[nH]ccc23)CC1 (as salt: HCl) [Example 11, [4-(1H-Indol-4-yl)-piperazin-1-yl]-piperidin-4-yl-methanone] |  | 
